Measured values taken from ChEMBL document CHEMBL4130359, “Indazole-based ligands for estrogen-related receptor α as potential anti-diabetic agents” (Eur J Med Chem, 2017).

Columns and labels:
[1] = target: Peroxisome proliferator-activated receptor alpha (Homo sapiens, UniProt Q07869); experiment: Agonist activity at recombinant GST-tagged human PPARalpha LBD assessed as fluorescein-labeled coactivator peptide recruitment preincubated with enzyme followed by coactivator addition by LanthaScreen TR-FRET assay
[2] = target: T1, Retinoic acid receptor RXR-alpha (Homo sapiens, UniProt P19793); experiment: Agonist activity at recombinant GST-tagged human RXRalpha LBD assessed as fluorescein-labeled coactivator peptide recruitment preincubated with enzyme followed by coactivator addition by LanthaScreen TR-FRET assay
[3] = target: Oxysterols receptor LXR-alpha (Homo sapiens, UniProt Q13133); experiment: Antagonist activity at recombinant GST-tagged human LXRalpha LBD assessed as inhibition of TO901317-induced fluorescein-labeled coactivator peptide recruitment preincubated with enzyme followed by coactivator addition by LanthaScreen TR-FRET assay
[4] = target: T1, Retinoic acid receptor RXR-alpha; experiment: Antagonist activity at recombinant GST-tagged human RXRalpha LBD assessed as inhibition of 9-cis-retinoic acid-induced fluorescein-labeled coactivator peptide recruitment preincubated with enzyme followed by coactivator addition by LanthaScreen TR-FRET assay
[5] = Clearance in CD-1 mouse at 5 mg/kg, iv by LC-MS analysis; type: ADME, organism-based; conditions: in vivo
[6] = Half life in CD-1 mouse at 5 mg/kg, iv by LC-MS analysis; type: ADME, organism-based; conditions: in vivo
[7] = Oral bioavailability in CD-1 mouse at 20 mg/kg administered via gavage by LC-MS analysis; type: ADME, organism-based; conditions: in vivo
[8] = system: Rattus norvegicus; experiment: Antidiabetic activity in Zucker rat sub-chronic fa/fa prediabetic model assessed as blood glucose AUC (0 to 120 min) at 50 mg/kg, po qd for 31 days measured on day 29 post dose by OGTT (reference value: 41471 +/- 2451 mg.min/dL); type: functional
[9] = AUC (0 to 24 hrs) in Zucker rat sub-chronic fa/fa prediabetic model at 3 mg/kg, po qd for 26 days measured on day 26 post last dose; type: ADME, organism-based; set-up: time < 24 hr, dose 3 mg/kg, route oral; conditions: in vivo
[10] = system: Rattus norvegicus; experiment: Toxicity in Zucker rat sub-chronic fa/fa prediabetic model assessed as body weight at 3 mg/kg, po qd for 29 days measured on day 29 post last dose (reference value: 533 +/- 10 g); type: organism-based; conditions: in vivo, 696 h
[11] = system: Rattus norvegicus; experiment: Toxicity in Zucker rat sub-chronic fa/fa prediabetic model assessed as change in body weight at 1 mg/kg, po qd for 29 days measured on day 1 to 29 during compound dosing (reference value: 140 +/- 7 g); type: organism-based; conditions: in vivo, 696 h
[12] = system: Rattus norvegicus; experiment: Toxicity in Zucker rat sub-chronic fa/fa prediabetic model assessed as change in body weight at 3 mg/kg, po qd for 29 days measured on day 1 to 29 during compound dosing (reference value: 140 +/- 7 g); type: organism-based; conditions: in vivo, 696 h
[13] = system: Rattus norvegicus; experiment: Toxicity in Zucker rat sub-chronic fa/fa prediabetic model assessed as brown adipose tissue weight at 50 mg/kg, po qd for 31 days measured on day 32 (reference value: 2.1 +/- 0.3 g); type: organism-based; conditions: in vivo, 744 h
[14] = system: Rattus norvegicus; experiment: Toxicity in Zucker rat sub-chronic fa/fa prediabetic model assessed as triglyceride level per gram liver at 1 mg/kg, po qd for 31 days measured on day 32 (reference value: 163.4 +/- 8.3 mg); type: organism-based; conditions: in vivo, 744 h
[15] = system: Rattus norvegicus; experiment: Toxicity in Zucker rat sub-chronic fa/fa prediabetic model assessed as insulin level per gram pancreas at 3 mg/kg, po qd for 31 days measured on day 32 (reference value: 55.2 +/- 5.5 ug); type: organism-based; conditions: in vivo, 744 h
[16] = system: Rattus norvegicus; experiment: Toxicity in Zucker rat sub-chronic fa/fa prediabetic model assessed as serum ALT level at 50 mg/kg, po qd for 31 days measured on day 32 (reference value: 151 +/- 23 U/L); type: organism-based; conditions: in vivo, 744 h
[17] = system: Rattus norvegicus; experiment: Toxicity in Zucker rat sub-chronic fa/fa prediabetic model assessed as serum AST level at 1 mg/kg, po qd for 31 days measured on day 32 (reference value: 187 +/- 37 U/L); type: organism-based; conditions: in vivo, 744 h
[18] = system: Rattus norvegicus; experiment: Toxicity in Zucker rat sub-chronic fa/fa prediabetic model assessed as serum creatinine level at 50 mg/kg, po qd for 31 days measured on day 32 (reference value: 0.71 +/- 0.07 mg/dl); type: organism-based; conditions: in vivo, 744 h
[19] = system: Rattus norvegicus; experiment: Antidiabetic activity in Zucker rat sub-chronic fa/fa prediabetic model assessed as increase in serum adiponectin level at 50 mg/kg, po qd for 32 days by ELISA relative to control; type: functional
[20] = system: Rattus norvegicus; experiment: Antidiabetic activity in […] model assessed as HbA1C level at 3 mg/kg, po qd for 31 days measured on day 32 post dose (reference value: 5.9 +/- 0.18%); type: functional
[21] = AUC (0 to 24 hrs) in […] model at 50 mg/kg, po qd measured on day 1 post dose; type: ADME, organism-based; set-up: dose 50 mg/kg, time < 24 hr, route oral; conditions: in vivo
[22] = system: Rattus norvegicus; experiment: Toxicity in […] chronic ob/ob model assessed as serum creatinine level at 50 mg/kg, po qd for 31 days measured on day 32 (reference value: 0.55 +/- 0.018 mg/dl); type: organism-based; conditions: in vivo, 744 h
[23] = system: Rattus norvegicus; experiment: Toxicity in […] chronic ob/ob model assessed as decrease in epididymal white adipose tissue weight at administered po qd for 31 days measured on day 32; type: organism-based; conditions: in vivo, 744 h
[24] = system: Rattus norvegicus; experiment: Effect on PRDX3 gene expression in epididymal white adipose tissue of Zucker rat sub-chronic fa/fa prediabetic model at 10 mg/kg, po qd for 15 days by microarray analysis relative to control; type: functional
[25] = system: Rattus norvegicus; experiment: Effect on ATP5F1 gene expression in epididymal white adipose tissue of Zucker rat sub-chronic fa/fa prediabetic model at 10 mg/kg, po qd for 15 days by microarray analysis relative to control; type: functional
[26] = system: Rattus norvegicus; experiment: Effect on NDUFS4 gene expression in epididymal white adipose tissue of Zucker rat sub-chronic fa/fa prediabetic model at 10 mg/kg, po qd for 15 days by microarray analysis relative to control; type: functional
[27] = system: Rattus norvegicus; experiment: Effect on IGFBP6 gene expression in epididymal white adipose tissue of Zucker rat sub-chronic fa/fa prediabetic model at 10 mg/kg, po qd for 15 days by microarray analysis relative to control; type: functional
[28] = system: Rattus norvegicus; experiment: Effect on ABCG1 gene expression in epididymal white adipose tissue of Zucker rat sub-chronic fa/fa prediabetic model at 10 mg/kg, po qd for 15 days by microarray analysis relative to control; type: functional
[29] = system: Rattus norvegicus; experiment: Effect on HMGCS1 gene expression in epididymal white adipose tissue of Zucker rat sub-chronic fa/fa prediabetic model at 10 mg/kg, po qd for 15 days by microarray analysis relative to control; type: functional
[30] = system: Rattus norvegicus; experiment: Effect on ACAT1 gene expression in epididymal white adipose tissue of Zucker rat sub-chronic fa/fa prediabetic model at 10 mg/kg, po qd for 15 days by microarray analysis relative to control; type: functional
[31] = system: Rattus norvegicus; experiment: Effect on EIF2B3 gene expression in epididymal white adipose tissue of Zucker rat sub-chronic fa/fa prediabetic model at 10 mg/kg, po qd for 15 days by microarray analysis relative to control; type: functional
[32] = system: Rattus norvegicus; experiment: Effect on AADAT gene expression in epididymal white adipose tissue of Zucker rat sub-chronic fa/fa prediabetic model at 10 mg/kg, po qd for 15 days by microarray analysis relative to control; type: functional

T1 sequence (P19793 whole entry, the tested form may be a part): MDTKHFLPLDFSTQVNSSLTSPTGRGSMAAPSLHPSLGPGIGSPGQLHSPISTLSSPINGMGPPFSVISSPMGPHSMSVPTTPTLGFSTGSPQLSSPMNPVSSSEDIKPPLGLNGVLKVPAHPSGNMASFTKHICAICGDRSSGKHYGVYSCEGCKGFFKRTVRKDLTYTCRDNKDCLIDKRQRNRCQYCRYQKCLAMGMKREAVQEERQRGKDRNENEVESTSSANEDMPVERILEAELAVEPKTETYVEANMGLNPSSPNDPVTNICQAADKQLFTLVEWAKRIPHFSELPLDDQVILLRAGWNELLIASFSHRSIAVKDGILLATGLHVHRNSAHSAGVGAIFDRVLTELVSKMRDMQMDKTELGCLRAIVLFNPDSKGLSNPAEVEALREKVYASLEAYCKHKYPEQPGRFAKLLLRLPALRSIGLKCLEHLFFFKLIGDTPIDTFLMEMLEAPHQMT
Chain of Oxysterols receptor LXR-alpha (Q13133 whole entry, the tested form may be a part): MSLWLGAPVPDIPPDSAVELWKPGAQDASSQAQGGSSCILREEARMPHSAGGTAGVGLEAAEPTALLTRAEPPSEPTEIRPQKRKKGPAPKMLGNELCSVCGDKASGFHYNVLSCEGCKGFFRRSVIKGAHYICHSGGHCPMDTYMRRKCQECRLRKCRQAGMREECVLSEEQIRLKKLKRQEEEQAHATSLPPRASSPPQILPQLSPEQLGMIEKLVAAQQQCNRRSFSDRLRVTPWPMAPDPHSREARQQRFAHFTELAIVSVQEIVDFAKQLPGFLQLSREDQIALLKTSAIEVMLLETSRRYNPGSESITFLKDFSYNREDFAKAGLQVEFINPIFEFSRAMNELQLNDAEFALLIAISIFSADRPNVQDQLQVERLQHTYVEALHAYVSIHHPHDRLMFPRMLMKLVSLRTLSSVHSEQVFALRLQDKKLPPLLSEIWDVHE
Chain of Peroxisome proliferator-activated receptor alpha (Q07869 whole entry, the tested form may be a part): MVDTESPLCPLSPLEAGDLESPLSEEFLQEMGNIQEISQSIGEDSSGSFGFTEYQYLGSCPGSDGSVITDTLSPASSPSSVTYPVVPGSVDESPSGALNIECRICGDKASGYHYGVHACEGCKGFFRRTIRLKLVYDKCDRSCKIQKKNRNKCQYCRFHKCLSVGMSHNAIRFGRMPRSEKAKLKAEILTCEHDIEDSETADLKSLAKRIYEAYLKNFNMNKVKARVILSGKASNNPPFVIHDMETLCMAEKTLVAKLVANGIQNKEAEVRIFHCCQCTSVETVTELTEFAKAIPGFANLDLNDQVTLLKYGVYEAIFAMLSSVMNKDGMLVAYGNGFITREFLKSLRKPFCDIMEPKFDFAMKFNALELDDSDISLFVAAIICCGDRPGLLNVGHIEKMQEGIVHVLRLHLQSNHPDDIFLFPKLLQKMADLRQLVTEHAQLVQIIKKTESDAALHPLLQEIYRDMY

For `CN1CC[C@@H](N2C(=O)S/C(=C\c3ccc4c(cnn4Cc4ccc(Cl)cc4C(F)(F)F)c3)C2=O)[C@H](F)C1`, the EC50 [1] was over 10 µM, the EC50 [2] was over 10 µM and the IC50 [3] was over 10 µM. It also gave an IC50 [4] of over 10 µM, a clearance [5] of 10 mL/min/kg and a half-life [6] of 11.8 h. The bioavailability [7] was 52%, the Activity [8] was 16701 mg·min/dL and the AUC at 24 h [9] was 10800 ng·h/mL. It also gave an Activity [10] of 561 g, an Activity [11] of 142 g and an Activity [12] of 160 g. It also gave an Activity [13] of 10.3 g, an Activity [14] of 122 mg and an Activity [15] of 90.7 µg. For the same molecule, the Activity [16] was 104 U/L, the Activity [17] was 158 U/L and the Activity [18] was 0.54 mg/dL. The “fold change (FC)” value [19] was 3.3, the Activity [20] was 5.7% and the AUC(0-t) at 24 h [21] was 16900 ng·h/mL. For the same molecule, the Activity [22] was 0.43 mg/dL, the Activity [23] was “Dose-dependent effect” and the “fold change (FC)” value [24] was 1.559. The “fold change (FC)” value [25] was 1.257, the “fold change (FC)” value [26] was 1.239 and the “fold change (FC)” value [27] was -1.269. For the same molecule, the “fold change (FC)” value [28] was 1.488, the “fold change (FC)” value [29] was -1.387 and the “fold change (FC)” value [30] was 1.634. For the same molecule, the “fold change (FC)” value [31] was 1.203 and the “fold change (FC)” value [32] was 2.931.
